According to patent US20240024324A1, “KINASE INHIBITOR COMBINATIONS FOR CANCER TREATMENT” (Merck Patent GmbH, priority 2020, published 2024):

Assays:
GSC11 [1] = assay: GSC lines: sensitivity in vitro (IC50); type: cell-based
Experimental: (§1) FIG. 1: In vitro analyses in GSC lines. (A) Western blot analysis of protein expression; (B) IC50 of M2698; (C) IC50 of pimasertib; and (D) apoptotic GSC11, GSC7-2, and GSC17 cells after treatment with M2698, pimasertib, or M2698+pimasertib combination. Single agents were tested at their IC50; half the IC50 of each compound was used for the combination.
(§2) All GSC lines expressed Akt. Relatively high pAkt expression in GSC17, GSC7-2, GSC231, GSC11, GSC20, GSC6-27, and GSC8-11 lines compared with GSC272 and GSC267 (FIG. 1A).

GSC17 [2] = assay: GSC lines: sensitivity in vitro (IC50); type: cell-based
Experimental: as §1, §2

GSC20 [3] = assay: GSC lines: sensitivity in vitro (IC50); type: cell-based
Experimental: as §1, §2

GSC231 [4] = assay: GSC lines: sensitivity in vitro (IC50); type: cell-based; settings: GSC231 line in vitro
Experimental: as §1, §2

GSC6-27 [5] = assay: GSC lines: sensitivity in vitro (IC50); type: cell-based; settings: GSC6-27 line in vitro
Experimental: as §1, §2

GSC7-2 [6] = assay: GSC lines: sensitivity in vitro (IC50); type: cell-based
Experimental: as §1, §2

GSC272 [7] = assay: GSC lines: sensitivity in vitro (IC50); type: cell-based; settings: GSC272 line in vitro
Experimental: FIG. 1: In vitro analyses in GSC lines. (A) Western blot analysis of protein expression; (B) IC50 of […]; (C) IC50 of pimasertib; and (D) apoptotic GSC11, GSC7-2, and GSC17 cells after treatment with […], pimasertib, or […]+pimasertib combination. Single agents were tested at their IC50; half the IC50 of each compound was used for the combination. In vitro IC50 data were used to select GSC lines for in vivo studies; […] All GSC lines expressed Akt. Relatively high pAkt expression in GSC17, GSC7-2, GSC231, GSC11, GSC20, GSC6-27, and GSC8-11 lines compared with GSC272 and GSC267 (FIG. 1A). […] (FIG. 1B).

GSC11 [8] = assay: Induction of apoptosis in GSC lines in vitro; type: cell-based
Experimental: (§3) FIG. 1: In vitro analyses in GSC lines. (A) Western blot analysis of protein expression; (B) IC50 of M2698; (C) IC50 of pimasertib; and (D) apoptotic GSC11, GSC7-2, and GSC17 cells after treatment with M2698, pimasertib, or M2698+pimasertib combination. […]
(§4) Induction of apoptosis by M2698, pimasertib, and the combination was measured in three of five GSC lines that were sensitive to M2698 in vitro.

GSC17 [9] = assay: Induction of apoptosis in GSC lines in vitro; type: cell-based
Experimental: as §3, §4

GSC7-2 [10] = assay: Induction of apoptosis in GSC lines in vitro; type: cell-based
Experimental: as §3, §4

GSC11 [11] = assay: Orthotopic GSC xenograft model; type: in vivo, mice
Experimental: (§5) The in vivo effects of M2698 and pimasertib, alone and in combination, were assessed in the GSC models after orthotopic implantation into mice. Treatment duration and time of euthanasia post-implantation was 5-10 weeks. Endpoints were expression of PD markers pS6 and pERK, proliferation marker Ki67, apoptosis as measured by TUNEL, tumor volume and survival.

GSC17 [12] = assay: Orthotopic GSC xenograft model; type: in vivo, mice
Experimental: as §5

GSC20 [13] = assay: Orthotopic GSC xenograft model; type: in vivo, mice
Experimental: as §5

GSC231 [14] = assay: Orthotopic GSC xenograft model; type: in vivo, mice
Experimental: as §5

GSC272 [15] = assay: Orthotopic GSC xenograft model; type: in vivo, mice
Experimental: as §5

GSC6-27 [16] = assay: Orthotopic GSC xenograft model; type: in vivo, mice
Experimental: as §5

GSC7-2 [17] = assay: Orthotopic GSC xenograft model; type: in vivo, mice
Experimental: as §5

[18] = tested on: Non-Small Lung Cancer (NSCLC) Brain Metastases PDX; assay: PDX models of NSCLC brain metastases; type: in vivo
[19] = tested on: Her2+/HR− Breast Cancer PDX; assay: PDX models of Her2+/HR- breast cancer; type: in vivo
[20] = tested on: human cholangiocarcinoma cancer PDX; assay: PDX models of cholangiocarcinoma; type: in vivo, mice; settings: 20 mg/kg each agent QD PO
Description: The objective of this experiment was to evaluate the antitumor activity of M2698 alone and in combination with Pimasertib in a panel of 13 Patient-Derived Xenograft models representing human cholangiocarcinoma cancer derived from Chinese patients in immune-deficient mice.
Vehicle: 0.5% Methocel/0.25% Tween20 in Milli-Q Water. Tumors from three untreated mice were collected as satellite samples when reached a tumor volume between 300-500 mm3.

Colorectal Cancer PDX = assay: 75 PDX models of colorectal cancer; type: in vivo; settings: CRC PDX; M2698 25 mg/kg po qd, Pimasertib 20 mg/kg po qd, Cetuximab 20 mg/kg ip q2w
Description: Of the 75 models, 25 were wild type, 25 KRas mutant, and 25 BRaf mutant.

[21] = in vivo; cited from earlier work

O=C(NCC(O)CO)c1ccncc1Nc1ccc(I)cc1F (stereo not drawn) [pimasertib, N-(2,3-dihydroxy-propyl)-3-(2-fluoro-4-iodo-phenylamino)-isonicotinamide, reference compound]
sensitivity in vitro (GSC11 [1]; GSC11 line): most sensitive
IC50 (GSC11 [1]; GSC11 line in vitro): < 2 µM
sensitivity in vitro (GSC17 [2]; GSC17 line): moderately sensitive
IC50 (GSC17 [2]; GSC17 line in vitro): < 2 µM
sensitivity in vitro (GSC20 [3]; GSC20 line): insensitivity
IC50 (GSC20 [3]; GSC20 line in vitro): > 2 µM
IC50 (GSC231 [4]): < 2 µM
IC50 (GSC6-27 [5]): > 2 µM
sensitivity in vitro (GSC7-2 [6]; GSC7-2 line): not sensitive
IC50 (GSC7-2 [6]; GSC7-2 line in vitro): > 2 µM
IC50 (GSC272 [7]): > 2 µM
apoptotic percentage (GSC11 [8]; GSC11, monotherapy at 2×IC50): 62%
apoptotic percentage (GSC11 [8]; GSC11, monotherapy at the IC50): 56%
apoptotic percentage (GSC17 [9]; GSC17, monotherapy at 2×IC50): 12%
apoptotic percentage (GSC17 [9]; GSC17, monotherapy at the IC50): 11%
apoptotic percentage (GSC7-2 [10]; GSC7-2, monotherapy at 2×IC50): 17%
apoptotic percentage (GSC7-2 [10]; GSC7-2, monotherapy at the IC50): 13%
pERK expression in orthotopic tumor (GSC11 [11]; GSC11, PD marker): significantly reduced pERK
median survival (GSC11 [11]; GSC11 orthotopic, vs vehicle): no significant effects on survival
pERK expression in orthotopic tumor (GSC17 [12]; GSC17, PD marker): significantly reduced pERK
median survival (GSC17 [12]; GSC17 orthotopic, vs vehicle): no significant effects on survival
tumor volume / tumor growth (GSC17 [12]; GSC17 orthotopic, vs vehicle): not affected
proliferation (Ki67 by immunohistochemistry) (GSC17 [12]; GSC17 tumor sections, compared to vehicle): significantly reduced proliferation
pERK expression in orthotopic tumor (GSC20 [13]; GSC20, PD marker): significant effects of pimasertib treatment on pERK protein were not seen
median survival (GSC20 [13]; GSC20 orthotopic, vs vehicle): no significant effects on survival
tumor volume / tumor growth (GSC20 [13]; GSC20 orthotopic, vs vehicle): had not responded
pERK expression in orthotopic tumor (GSC231 [14]; GSC231, PD marker): significantly reduced pERK
pS6 expression in orthotopic tumor (GSC231 [14]; GSC231, PD marker): significantly reduced pS6
cross-pathway reduction of pS6, trend over time (GSC231 [14]; GSC231, from 7.5-10 weeks): diminished
median survival (GSC231 [14]; GSC231 orthotopic, vs vehicle): no significant effects on survival
tumor volume / tumor growth (GSC231 [14]; GSC231 orthotopic, vs vehicle): trend towards a significant response
pERK expression in orthotopic tumor (GSC272 [15]; GSC272, PD marker): significantly reduced pERK
pS6 expression in orthotopic tumor (GSC272 [15]; GSC272, PD marker): significantly reduced pS6
cross-pathway reduction of pS6, trend over time (GSC272 [15]; GSC272, from 7.5-10 weeks): diminished
median survival (GSC272 [15]; GSC272 orthotopic, vs vehicle): no significant effects on survival
tumor volume / tumor growth (GSC272 [15]; GSC272 orthotopic, vs vehicle): significant tumor growth inhibition
pERK expression in orthotopic tumor (GSC6-27 [16]; GSC6-27, PD marker): significantly reduced pERK
median survival (GSC6-27 [16]; GSC6-27 orthotopic, vs vehicle): no significant effects on survival
tumor volume / tumor growth (GSC6-27 [16]; GSC6-27 orthotopic, vs vehicle): significant tumor growth inhibition
pERK expression in orthotopic tumor (GSC7-2 [17]; GSC7-2, PD marker): significantly reduced pERK
median survival (GSC7-2 [17]; GSC7-2 orthotopic, vs vehicle): no significant effects on survival
tumor volume / tumor growth (GSC7-2 [17]; GSC7-2 orthotopic, vs vehicle): significant tumor growth inhibition
number of apoptotic cells/field (GSC7-2 [17]; GSC7-2 xenografts, after 10 weeks): 65.00±60.80 cells/field
apoptosis in xenografts vs control (GSC7-2 [17]; GSC7-2 xenografts, at 7.5 weeks): Neither M2698, pimasertib, nor combination treatment significantly affected apoptosis
tumor control rate (TCR) [18]: 16%
tumor volume over the duration of the experiment [19]: stasis of the tumor volume
tumor stasis, number of tumor samples [20]: 1/12
tumor stasis, share of tumor samples [20]: 8%
tumor control rate (TCR) (Colorectal Cancer PDX): 32%
tumor control rate (TCR), models controlled/models (Colorectal Cancer PDX): 24/74
blood-brain barrier penetration [21]: brain-penetrant
